Laboratory results taken from paper PMC6193938, “Characterization of a novel AICARFT inhibitor which potently elevates ZMP and has anti-tumor activity in murine models” (Scientific Reports, 2018).
Read-outs that look alike come from different tables or passages of the source.

How the values were obtained:
[1] = system: A101D (melenoma); experiment: Low folate & high folate in vitro proliferation assay (Alamar Blue); assay type: cell-based; settings: Homo sapiens
Method: (§1) Cells lines were acquired from cell banks, see supplemental material, grown using the cell banks recommended culture conditions (Supplemental Table 3). In some experiments noted “low folate” the cells were washed and grown in folate free RPMI-1640 media (Gibco #27016-021) supplemented with 5 ml 1 M Hepes, 5 ml 100 mM Na pyruvate, 2.5 mg/ml glucose and 10% defined FBS (Hyclone #SH30070) per 500 mL media for 5–7 days to deplete intracellular folate levels prior to the start of the experiment. Where noted, cells were maintained in complete “high folate” RPMI-1640 media (ATCC #30-2001) with 10% defined FBS to contrast with the low folate conditions.
(§2) Cells were cultured using recommended culture conditions unless noted otherwise (Supplemental Table 3). Cells were plated, dosed with compound and incubated at 37 °C for approximately 2 doubling times as determined for each cell line. Cell Titer Glo (Promega) assay was used to measure proliferation according to manufacturer’s recommendations by measuring luminescence with Flexstation3 (Molecular Devices) with 500 ms integration time. […] The % response was fit to a four-parameter logistic equation using ACTIVITYBASE 4.0 to determine the absolute IC50 values.
(§3) For a limited number of cell lines, compound dosing was performed under high or low folate conditions with cell viability being determined with Alamar Blue rather than an ATP dependent assay. Cells were plated and treated as described above. Proliferation was measured using Alamar Blue Cell Viability Reagent (Invitrogen), and read after approximately 1.5–4 hours incubation at 37 °C on the Envision plate reader (Perkin Elmer) with excitation at 570 nm and emission at 585 nm. The % inhibition for each sample was calculated and fit as described above.

[2] = system: A549 (lung); experiment: as above; assay type: cell-based; settings: Homo sapiens, low folate RPMI media
Method: as §1, §2, §3

[3] = system: HCT 116 (colon); experiment: as above; assay type: cell-based; settings: Homo sapiens
Method: as §1, §2, §3

[4] = system: NCI-H1155 (lung); experiment: as above; assay type: cell-based; settings: Homo sapiens
Method: as §1, §2, §3

[5] = system: NCI-H1299; experiment: as above; assay type: cell-based; settings: Homo sapiens
Method: as §1, §2, §3

[6] = system: NCI-H1437 (lung); experiment: as above; assay type: cell-based; settings: Homo sapiens
Method: as §1, §2, §3

[7] = system: NCI-H1993 (lung); experiment: as above; assay type: cell-based; settings: Homo sapiens
Method: as §1, §2, §3

[8] = system: SNU-16 (gastric); experiment: as above; assay type: cell-based; settings: Homo sapiens
Method: as §1, §2, §3

[9] = target: T1, DRAK1 (Homo sapiens, UniProt Q9UEE5); experiment: CEREP protein kinase assay; assay type: biochemical
T1 construct: purchased CEREP Panlabs (Eurofins)
T1 sequence (Q9UEE5 1-414): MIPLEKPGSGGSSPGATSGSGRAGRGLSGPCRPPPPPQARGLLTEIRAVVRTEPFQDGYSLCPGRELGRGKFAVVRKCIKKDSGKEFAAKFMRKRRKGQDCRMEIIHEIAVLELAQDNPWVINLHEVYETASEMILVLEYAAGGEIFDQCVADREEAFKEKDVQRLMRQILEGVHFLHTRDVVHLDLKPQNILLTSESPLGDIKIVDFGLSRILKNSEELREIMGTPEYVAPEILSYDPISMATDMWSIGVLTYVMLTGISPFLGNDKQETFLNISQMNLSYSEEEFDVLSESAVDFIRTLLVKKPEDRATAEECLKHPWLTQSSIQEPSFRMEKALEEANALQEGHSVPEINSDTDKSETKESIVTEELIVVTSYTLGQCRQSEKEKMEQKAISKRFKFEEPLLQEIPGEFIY

[10] = target: T2, EPHB1 (Homo sapiens, UniProt P54762); experiment: CEREP protein kinase assay; assay type: biochemical
T2 construct: purchased CEREP Panlabs (Eurofins)
T2 sequence (P54762 18-984): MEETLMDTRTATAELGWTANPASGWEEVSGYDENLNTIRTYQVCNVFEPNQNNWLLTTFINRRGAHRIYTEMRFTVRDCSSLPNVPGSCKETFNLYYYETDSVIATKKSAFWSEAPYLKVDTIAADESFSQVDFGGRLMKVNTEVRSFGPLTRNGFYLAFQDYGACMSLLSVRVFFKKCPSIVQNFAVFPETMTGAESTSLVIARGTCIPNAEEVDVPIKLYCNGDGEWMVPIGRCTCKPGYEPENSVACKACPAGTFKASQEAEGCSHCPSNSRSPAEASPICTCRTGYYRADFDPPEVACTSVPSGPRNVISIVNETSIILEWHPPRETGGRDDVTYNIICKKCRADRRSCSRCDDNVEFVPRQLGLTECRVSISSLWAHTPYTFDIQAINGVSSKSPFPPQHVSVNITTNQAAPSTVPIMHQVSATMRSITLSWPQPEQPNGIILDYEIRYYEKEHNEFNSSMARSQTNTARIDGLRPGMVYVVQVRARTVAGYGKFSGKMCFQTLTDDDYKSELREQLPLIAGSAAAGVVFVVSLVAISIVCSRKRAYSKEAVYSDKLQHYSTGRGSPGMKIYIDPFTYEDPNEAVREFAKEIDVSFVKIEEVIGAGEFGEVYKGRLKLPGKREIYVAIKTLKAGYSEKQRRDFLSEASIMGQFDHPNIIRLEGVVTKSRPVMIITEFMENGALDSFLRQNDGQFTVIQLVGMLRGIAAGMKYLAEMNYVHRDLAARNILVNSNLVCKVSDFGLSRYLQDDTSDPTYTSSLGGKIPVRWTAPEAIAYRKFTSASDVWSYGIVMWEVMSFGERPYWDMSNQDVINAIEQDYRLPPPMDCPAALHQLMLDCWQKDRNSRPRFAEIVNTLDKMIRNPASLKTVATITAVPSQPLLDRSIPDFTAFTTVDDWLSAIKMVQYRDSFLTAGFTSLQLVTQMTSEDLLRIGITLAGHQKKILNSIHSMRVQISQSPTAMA

[11] = target: T3, FER (Homo sapiens, UniProt P16591); experiment: CEREP protein kinase assay; assay type: biochemical
T3 construct: purchased CEREP Panlabs (Eurofins)
T3 sequence (P16591 whole entry): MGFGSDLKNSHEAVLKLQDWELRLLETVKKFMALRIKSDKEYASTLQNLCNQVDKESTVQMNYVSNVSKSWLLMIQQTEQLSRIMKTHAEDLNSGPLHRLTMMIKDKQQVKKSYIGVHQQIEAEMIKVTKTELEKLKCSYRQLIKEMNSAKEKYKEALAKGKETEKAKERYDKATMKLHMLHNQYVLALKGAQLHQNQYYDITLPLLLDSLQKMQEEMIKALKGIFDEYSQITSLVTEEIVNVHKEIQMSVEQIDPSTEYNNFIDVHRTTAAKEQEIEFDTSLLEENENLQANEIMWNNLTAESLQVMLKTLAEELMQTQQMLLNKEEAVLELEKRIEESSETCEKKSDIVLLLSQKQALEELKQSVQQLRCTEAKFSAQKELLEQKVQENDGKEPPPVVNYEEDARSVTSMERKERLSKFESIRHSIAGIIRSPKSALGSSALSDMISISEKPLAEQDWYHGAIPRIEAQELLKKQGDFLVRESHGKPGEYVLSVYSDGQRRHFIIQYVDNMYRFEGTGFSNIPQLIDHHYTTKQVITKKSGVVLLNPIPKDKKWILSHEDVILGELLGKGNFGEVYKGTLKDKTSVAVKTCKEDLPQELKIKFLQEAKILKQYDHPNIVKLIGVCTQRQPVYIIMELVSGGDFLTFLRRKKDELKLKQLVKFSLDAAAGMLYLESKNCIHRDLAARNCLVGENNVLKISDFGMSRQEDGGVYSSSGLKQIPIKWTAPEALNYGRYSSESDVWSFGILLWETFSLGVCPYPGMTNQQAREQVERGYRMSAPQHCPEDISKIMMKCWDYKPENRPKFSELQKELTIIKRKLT

[12] = target: T4, MLK1 (Homo sapiens, UniProt P80192); experiment: CEREP protein kinase assay; assay type: biochemical
T4 construct: purchased CEREP Panlabs (Eurofins)
T4 sequence (P80192 whole entry): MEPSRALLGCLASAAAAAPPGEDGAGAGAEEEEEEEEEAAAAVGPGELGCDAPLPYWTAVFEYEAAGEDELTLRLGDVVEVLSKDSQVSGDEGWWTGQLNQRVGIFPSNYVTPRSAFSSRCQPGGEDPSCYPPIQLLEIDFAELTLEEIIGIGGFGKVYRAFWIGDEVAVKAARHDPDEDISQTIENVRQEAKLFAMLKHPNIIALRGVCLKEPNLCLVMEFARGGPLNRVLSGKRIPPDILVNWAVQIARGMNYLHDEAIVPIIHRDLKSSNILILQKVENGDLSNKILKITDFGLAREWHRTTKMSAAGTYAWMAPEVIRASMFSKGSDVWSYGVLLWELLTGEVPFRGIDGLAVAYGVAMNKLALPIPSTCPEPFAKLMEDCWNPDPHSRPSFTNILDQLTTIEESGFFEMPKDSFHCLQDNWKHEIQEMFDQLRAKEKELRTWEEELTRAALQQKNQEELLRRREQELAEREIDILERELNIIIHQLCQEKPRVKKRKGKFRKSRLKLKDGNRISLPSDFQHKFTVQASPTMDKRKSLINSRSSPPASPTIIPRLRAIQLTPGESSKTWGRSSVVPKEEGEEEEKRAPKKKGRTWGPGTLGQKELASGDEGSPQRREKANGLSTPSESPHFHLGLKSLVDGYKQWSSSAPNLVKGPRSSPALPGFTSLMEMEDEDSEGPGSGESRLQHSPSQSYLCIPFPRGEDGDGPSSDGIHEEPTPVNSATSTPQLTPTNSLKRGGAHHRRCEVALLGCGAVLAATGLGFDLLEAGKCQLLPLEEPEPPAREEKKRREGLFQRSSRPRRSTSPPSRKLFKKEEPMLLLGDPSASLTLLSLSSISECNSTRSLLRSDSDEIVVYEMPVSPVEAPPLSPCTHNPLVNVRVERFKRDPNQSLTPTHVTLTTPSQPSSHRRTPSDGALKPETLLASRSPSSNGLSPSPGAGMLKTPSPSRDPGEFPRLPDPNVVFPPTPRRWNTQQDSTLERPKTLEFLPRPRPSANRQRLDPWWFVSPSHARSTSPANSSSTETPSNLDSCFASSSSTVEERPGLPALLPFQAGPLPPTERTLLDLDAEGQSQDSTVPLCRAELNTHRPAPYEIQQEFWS

[13] = target: T5, PKCb2 (Homo sapiens, UniProt P05771); experiment: CEREP protein kinase assay; assay type: biochemical
T5 construct: purchased CEREP Panlabs (Eurofins)
T5 sequence (P05771 1-673 isoform P05771-2): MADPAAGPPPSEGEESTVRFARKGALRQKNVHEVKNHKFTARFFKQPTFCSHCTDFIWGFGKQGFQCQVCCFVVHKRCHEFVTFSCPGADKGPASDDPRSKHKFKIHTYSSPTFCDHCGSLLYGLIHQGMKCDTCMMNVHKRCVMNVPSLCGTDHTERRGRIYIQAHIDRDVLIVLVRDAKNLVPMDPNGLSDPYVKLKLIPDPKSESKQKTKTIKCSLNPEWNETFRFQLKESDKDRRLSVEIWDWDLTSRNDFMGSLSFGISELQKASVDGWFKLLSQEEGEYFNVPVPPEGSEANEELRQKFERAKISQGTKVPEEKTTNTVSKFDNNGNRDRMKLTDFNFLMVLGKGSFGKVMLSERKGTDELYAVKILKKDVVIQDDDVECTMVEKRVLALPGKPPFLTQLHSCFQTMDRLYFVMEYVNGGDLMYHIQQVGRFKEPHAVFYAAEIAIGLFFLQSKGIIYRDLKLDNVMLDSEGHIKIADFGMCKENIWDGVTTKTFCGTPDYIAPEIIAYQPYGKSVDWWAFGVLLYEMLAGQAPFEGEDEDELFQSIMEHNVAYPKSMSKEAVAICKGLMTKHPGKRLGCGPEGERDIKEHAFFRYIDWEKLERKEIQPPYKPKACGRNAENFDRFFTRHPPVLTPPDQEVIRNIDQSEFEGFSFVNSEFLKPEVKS

[14] = RPMI media, read-out: Alamar Blue GI50 Regular folate
[15] = low folate RPMI media, read-out: Alamar Blue GI50 Low folate

Compound: O=c1[nH]ccc2cc(F)c(NS(=O)(=O)c3ccc(N4CC[C@@H](O)C4)s3)cc12 [LSN3213128, N-(6-Fluoro-1-oxo-1,2-dihydroisoquinolin-7-yl)-5-[(3R)-3-hydroxypyrrolidin-1-yl]thiophene-2-sulfonamide]
- GI50 [1, 14]: 3290 nM
- GI50 [1, 15]: 2.9 nM
- GI50 [2]: 6 nM
- GI50 [3, 14]: 2810 ± 1220 nM
- GI50 [3, 15]: 2.2 ± 2.1 nM
- GI50 [4, 14]: 729 ± 215 nM
- GI50 [4, 15]: 4.9 nM
- GI50 [5, 14]: 1590 nM
- GI50 [5, 15]: 4.8 nM
- GI50 [6, 14]: 1880 ± 894 nM
- GI50 [6, 15]: 0.73 nM
- GI50 [7, 14]: 2680 ± 2540 nM
- GI50 [7, 15]: 3 ± 2.7 nM
- GI50 [8, 14]: 1590 ± 1270 nM
- GI50 [8, 15]: 1.2 ± 1.2 nM
- inhibition at 0.2 µM ([9]; @ 0.2 uM): 4.41%
- inhibition at 2 µM ([9]; @ 2 uM): 13.9%
- inhibition at 20 µM ([9]; @ 20 uM): 20.3%
- inhibition at 0.2 µM ([10]; @ 0.2 uM): -10.2%
- inhibition at 2 µM ([10]; @ 2 uM): 11.7%
- inhibition at 20 µM ([10]; @ 20 uM): 57.1%
- inhibition at 0.2 µM ([11]; @ 0.2 uM): 3.36%
- inhibition at 2 µM ([11]; @ 2 uM): 18%
- inhibition at 20 µM ([11]; @ 20 uM): 11.1%
- inhibition at 0.2 µM ([12]; @ 0.2 uM): -7.95%
- inhibition at 2 µM ([12]; @ 2 uM): 2.73%
- inhibition at 20 µM ([12]; @ 20 uM): 3.99%
- inhibition at 0.2 µM ([13]; @ 0.2 uM): -3.72%
- inhibition at 2 µM ([13]; @ 2 uM): -1.04%
- inhibition at 20 µM ([13]; @ 20 uM): -3.76%
